In patent US10464920B2, “Vicinal primary diamines associated with metal and/or free radical chelation motifs, and active against carbonyl and oxidative stress, and use thereof” (UNIVERSITE AMIENS PICARDIE JULES VERNE, priority 2015, dated 2019):

Columns and labels:
[1] = ORACFL test (Oxygen Radical Absorbance Capacity) using fluorescein/AAPH; assay type: physicochemical; conditions: compounds at 10 μM; mean ± SEM of three independent experiments in triplicate
Method: The antioxidant properties of the compounds according to the invention were evaluated using a ORACFL test using fluorescein (J. Agric. Food Chem., 2004 52, 48-54; J. Agric. Food Chem., 2005, 53, 4290-4302). As such, peroxide radicals, generated in the presence of AAPH (2,2′-azobis(2-methylpropionamidine)dihydrochloride) at 37° C., react with this fluorescent sensor in order to give a non-fluorescent product. The protective effect of the test compounds can then be determined by following the decay curve of the fluorescence of the fluorescein over time and be measuring the area under the curve (AUC) of the sample in relation to that of a control corresponding to an absence of antioxidant.
The trolox (6-hydroxy-2,5,7,8-tetramethylchroman-2-carboxylic acid), a water-soluble analogue of vitamin E, is used as a standard for calculating the antioxidant capacity (ORACFL) of the compounds tested at 10 μM, expressed in […] of tested compound. This value is as such obtained using the straight-line calibration equation giving the area under the curve according to the various concentrations of trolox (Bioorg. Med. Chem., 2015, 23, 1135-1148) (FIG. 11).
A solution of fluorescein (FL) (12 nM; 150 μL) is introduced into a black 96-well plate (Dutscher, Brumath, France). The compounds to be tested (1-20 μM; 25 μL) or trolox (1-50 μM; 25 μL) dissolved in D-PBS are added into each well. After equilibration of the plate during an incubation at 37° C. for a minimum of 30 min, the radical reactions are initiated using a solution of AAPH prepared extemporaneously (30 mM; 25 μL). The fluorescence (λEx: 485 nm; λEm: 520 nm) is measured every 90 seconds for 60 cycles using a temperature-controlled Tecan Infinite® 200 PRO microplate reader (measurements taken in triplicates during three independent experiments).

[2] = Formation of adducts with MGO, kinetic study by HPLC; assay type: physicochemical; conditions: compound 10 mM, MGO 20 mM, 37° C., after 15 min of incubation
Method: The compounds to be tested are incubated at 37° C. in the presence of MGO or of MDA. A kinetic study aiming to report on the formation of adducts with the MGO or MDA is then carried out via HPLC analysis.
The compounds to be tested (30 μmol) are dissolved in PBS (1.5 mL). An aqueous solution (qsp 1.25 mL) of MGO at 40% in water (250 μmol) is then prepared and in parallel, MDA bis-(diOEt)-acetal (250 μmol) is set to react with a solution of HCl 1N (2 eq) in water (qsp 1.25 mL) for 1 h at room temperature. An aqueous solution of NaOH 0.05N is also required to neutralise the reaction medium (5 mL).
The solution of the compound to be tested (625 μL—final concentration in the medium=10 mM) is then set to react with the solution of MGO or of MDA prepared extemporaneously (125 μL—final concentration in the medium=20 mM) in the presence of NaOH 0.05 N (0.5 mL).
The various mixtures are then incubated in the oven at 37° C. for 24 h.
A sampling of each mixture (100 μL) is taken at regular intervals of time (0.25; 0.5; 1; 5 and 24 h) and stored at −20° C. in order to stop the reaction. After dilution in a MeCN/H2O 98:2 mixture at room temperature, the HPLC analysis is carried out on a Shimadzu LCMS-2020 apparatus (UV chromatogram at 190 nm and mass spectrum in positive electrospray ionisation mode (ESI+)) after separation on the Waters Acquity column using a gradient of solvents H2O+HCOOH 0.1%/MeCN+HCOOH 0.1% (98/2 for 2 min, then 55/45 for 2 min and 45/55 for 3 min) with a flow rate of 0.3 mL/min at 40° C. and an injection of volume of 1 (“detection mode: scan, interface voltage: tuning file, DL voltage: 100 V, Q-array DC: 40 V, Q-array RF: 40 V”). A blank is first of all carried out using a solution containing the reaction medium without scavenger. Then, a free scavenger solution at 10 mM is used as a negative control and the carnosine as a reference of the literature. The proportion of adducts formed with the MGO or MDA (generally, tR=4.1 to 6.8 min) is then measured in relation to the quantity of remaining free scavenger (generally, tR=0.8 to 4.6 min) after measurement of the area under the curve of the corresponding peaks on the UV spectrum (measurements taken for a representative sample).

[3] = Cu2+ chelating properties by UV/Visible light spectrophotometry (murexide); assay type: physicochemical; conditions: 0.02-2 mM compound, CuSO4 0.25 mM solution, Hexamine buffer pH 5, RT 10 min
Method: J. Mol. Sci., 2009, 10, 5485-5497; Molecules, 2012, 17, 13457-13472). […] A Hexamine buffer 0.01 M/KCl 0.01 M (qsp 200 mL) of which the pH is adjusted to 5 using a solution of HCl 1N is first of all prepared. Solutions of CuSO4.5H2O at 0.5 mM (20 mL) and 0.25 mM (100 mL) are then carried out in this buffer, with the first being used to obtain the calibration curve. An aqueous solution of murexide at 1 mM must also be prepared extemporaneously (10 mL) as well as a stock solution of the compounds to be tested at 4.2 mM in Hexamine buffer 0.01 M/KCl 0.01 M or in a buffer and MeOH 75/25 mixture (6.2 mL). Various concentrations of the compounds to be tested are distributed in Hexamine buffer 0.01M/KCl 0.01M (pH=5) (Table 5) or in a buffer and MeOH 75/25 mixture in tubes for hemolysis (Table 6). The solution of CuSO4.5H2O at 0.25 mM (1 mL) is then added and this is allowed to incubate at RT for 10 min. Finally, the aqueous solution of murexide at 1 mM (0.1 mL) is introduced and is again allowed to incubate at RT for 1 min. The absorbances are then measured at 485 nm ([…]) and 520 nm ([…]) by UV/Visible light spectrophotometry (V-650 JASCO spectrometer) (measurements taken in triplicates). […] After introduction of the aqueous solution of murexide at 1 mM (0.1 mL), this is allowed to incubate at RT for 1 min and the absorbances are finally measured at 485 nm ([…]) and 520 nm ([…]) by UV/Visible light spectrophotometry.

[4] = tested on: human fibroblasts (MRC-5); assay: Cytotoxicity, cellular viability (CCK-8/WST-8) on MRC-5; assay type: cell-based
Method: (§1) The cellular viability is evaluated by a colorimetric method based on the detection of the conversion of a salt of the tetrazolium (WST-8) by the metabolically active cells (CCK-8 kit, Sigma, Lyons, France) (Molecules, 2014, 19(8), 12048-12064; J. Pharmacol. Toxicol. Methods., 2007, 56(1), 58-62). Living cells have mitochondrial dehydrogenases that reduce the WST-8 (2-(2-methoxy-4-nitrophenyl)-3-(4-nitrophenyl)-5-(2,4-disulfophenyl)-2H-tetrazolium), monosodium salt) to formazan of an orange colour, which dissolves directly in the culture medium in the presence of 1-Methoxy PMS (1-methoxy-5-methylphenazinium methyl sulphate). After an incubation for 1 h at 37° C., the absorbance of the formazan is measured at 450 nm. The absorbance is directly proportional to the number of living cells.
(§2) Briefly, the cells are inoculated in 96-well plates at a rate of 5.10^3 cells per well in 100 μL of the suitable medium until subconfluence. The cells are then washed with D-PBS, then treated with various concentrations (10 μM, 100 μM) of the products to be tested in triplicates for 24 and 48 h. A positive control is carried out with 10% of DMSO. The CCK-8 (10 μL) solution is then added to each well for an incubation for 1 h at 37° C. The measurement of the absorbance is taken at 450 nm using a Perkin Elmer 2103 Envision® microplate reader.
(§3) The viability of the cells is expressed as a % of the control (untreated cells) by the mean±standard deviation of triplicates forming a representative experiment or of three independent experiments conducted in triplicate.

[5] = tested on: rat pheochromocytoma cells, treated as neuronal cells (PC12); assay: Cytotoxicity, cellular viability (CCK-8/WST-8) on PC12; assay type: cell-based; conditions: rat
Method: as §1, §2, §3

[6] = tested on: low-density lipoproteins (LDLs); assay: Antiradical properties: inhibition of lipid peroxidation in AAPH-induced oxidation of LDLs; assay type: biochemical
Method: The antiradical properties of the various compounds are determined by inhibition of the lipid peroxidation in the in vitro model of the oxidation of the low-density lipoproteins (LDLs) (Free Radic. Biol. Med., 1992, 13, 341-390). The lipid peroxidation is initiated by the attack by free radicals of a double bond of a polyunsaturated fatty acid present in the LDLs. […] Once initiated, the oxidation of the LDLs is a chain reaction of lipid peroxidation generated by the free radicals. The oxidation in vitro of the LDLs is induced at 37° C. by the adding of the water-soluble compound 2,2′-Azobis(2-methylpropionamidine)dihydrochloride (AAPH), which generates free radicals during the spontaneous thermal breakdown thereof
Briefly, the oxidation, carried out in a 96-well plate, is induced at 37° C. by adding 20 μL of a solution of AAPH at 2 mM in D-PBS at 160 μL of LDL (100 μg/mL) in the presence or absence of 20 μL of the various solutions of the compounds to be tested dissolved in D-PBS (0.1 to 100 μM in final concentrations). The LDLs alone without adding AAPH are used as a negative control. Each oxidation is carried out in double. During the oxidation, the formation of the conjugated dienes is followed by the measurement of the optical density at 234 nm every 10 minutes for 8 h at 37° C. using a temperature-controlled TECAN spectrophotometer. The vitamin E (α-tocopherol) which is a powerful antioxidant recognised in this in vitro model is used as a reference molecule (J. Nutr. Biochem., 2012, 23, 845-51).

[7] = tested on: murine endothelial brain cells (bEnd.3); assay: Cytotoxicity, cellular viability (CCK-8/WST-8) on bEnd.3; assay type: cell-based; conditions: mouse
Method: as §1, §2, §3

| SMILES | ORACFL [1] [μmol TE/μmol] | disappearance of the free scavenger to the benefit of adducts with the MGO [2] | Cu^2+ chelating properties (complexation of the Cu^2+) [3] | viability of the cells as a percentage of the untreated cells ([4]; MRC-5, 10 μM, 24 h of treatment) [%] | viability of the cells as a percentage of the untreated cells ([4]; MRC-5, 10 μM, 48 h of treatment) [%] | viability of the cells as a percentage of the untreated cells ([4]; MRC-5, 100 μM, 24 h of treatment) [%] | viability of the cells as a percentage of the untreated cells ([4]; MRC-5, 100 μM, 48 h of treatment) [%] | viability of the cells as a percentage of the untreated cells ([5]; 24 h, 10 μM) [%] | viability of the cells as a percentage of the untreated cells ([5]; 24 h, 100 μM) [%] | viability of the cells as a percentage of the untreated cells ([5]; 48 h, 10 μM) [%] | viability of the cells as a percentage of the untreated cells ([5]; 48 h, 100 μM) [%] | antioxidant / pro-oxidant behaviour ([6]; concentrations ranging from 25 to 100) | antioxidant / pro-oxidant behaviour ([6]; lower concentrations, 0.1 to 10 μM) | viability of the cells as a percentage of the untreated cells ([7]; 24 h, 10 μM) [%] | viability of the cells as a percentage of the untreated cells ([7]; 24 h, 100 μM) [%] | viability of the cells as a percentage of the untreated cells ([7]; 48 h, 10 μM) [%] | viability of the cells as a percentage of the untreated cells ([7]; 48 h, 100 μM) [%] |
| --- | --- | --- | --- | --- | --- | --- | --- | --- | --- | --- | --- | --- | --- | --- | --- | --- | --- |
| Cc1c(O)c(=O)ccn1CCCNC(=O)CCC(N)CN (stereo not shown) [Compound 37j, 4,5-diamino-N-(3-(3-hydroxy-2-methyl-4-oxopyridin-1(4H)-yl)propyl)pentanamide] | 1.01 ± 0.06 | almost total disappearance of the free scavenger | most active |  |  |  |  |  |  |  |  |  |  |  |  |  |  |
| Cc1c(O)c(=O)ccn1CCC(=O)NCCCCC(N)CN (stereo not shown) [Compound 37i, N-(5,6-diaminohexyl)-3-(3-hydroxy-2-methyl-4-oxopyridin-1(4H)-yl)propanamide] | 1.24 ± 0.02 | almost total disappearance of the free scavenger | most active |  |  |  |  |  |  |  |  |  |  |  |  |  |  |
| COc1cc(/C=C/C(=O)NCCCCC(N)CN)ccc1O (stereo not shown) [Compound 29b, (E)-N-(5,6-diaminohexyl)-3-(4-hydroxy-3-methoxyphenyl)acrylamide] | 1.50 ± 0.10 |  | poor results | 106 | 95 | 102 | 100 | 108 | 112 | 95 | 97 | antioxidants | pro-oxidants | 92 | 86 | 92 | 90 |
